Experimental data: patent publication US8507489B2, “Bicyclic triazoles as protein kinase modulators” (SGX Pharmaceuticals, Inc., priority 2006, dated 2013)
pIC50: −log10 of the molar value.

Columns and labels:
GTL16 cells = assay: 96-well XTT cell survival assay (GTL16 cells); assay type: cell-based; details: Homo sapiens, GTL 16, 72 hours
Description: GTL16 cells were maintained in DMEM Medium supplemented with 10% fetal bovine serum (FBS) 2 mM L-Glutamine and 100 units penicillin/100 μg streptomycin, at 37° C. in 5% CO2.
Compounds were tested in the following assays in duplicate.
96-well XTT assay (GTL16 cells): One day prior to assay the growth media was aspirated off and assay media was added to cells. On the day of the assay, the cells were grown in assay media containing various concentrations of compounds (duplicates) on a 96-well flat bottom plate for 72 hours at 37° C. in 5% CO2. The starting cell number was 5000 cells per well and volume was 120 μl. At the end of the 72-hour incubation, 40 μl of XTT labeling mixture (50:1 solution of sodium 3′-[1-(phenylaminocarbonyl)-3,4-tetrazolium]-bis (4-methoxy-6-nitro) benzene sulfonic acid hydrate and Electron-coupling reagent: PMS (N-methyl dibenzopyrazine methyl sulfate) were added to each well of the plate. After an additional 5 hours of incubation at 37° C., the absorbance reading at 450 nm with a background correction of 650 nm was measured with a spectrophotometer.

AKT1 (PKB alpha) = AKT1 (PKB alpha) (Homo sapiens, UniProt P31749); assay: SelectScreen Kinase Profiling AKT1; assay type: biochemical
From the text: (§1) SelectScreen™ is a trademark screening assay protocol for kinases developed by Invitrogen Corporation, Madison, Wis. Details on assay conditions can be found on the company's website.

ALK = ALK (Homo sapiens, UniProt Q9UM73); assay: SelectScreen Kinase Profiling ALK; assay type: biochemical
ALK, sequence (Q9UM73 19-1620): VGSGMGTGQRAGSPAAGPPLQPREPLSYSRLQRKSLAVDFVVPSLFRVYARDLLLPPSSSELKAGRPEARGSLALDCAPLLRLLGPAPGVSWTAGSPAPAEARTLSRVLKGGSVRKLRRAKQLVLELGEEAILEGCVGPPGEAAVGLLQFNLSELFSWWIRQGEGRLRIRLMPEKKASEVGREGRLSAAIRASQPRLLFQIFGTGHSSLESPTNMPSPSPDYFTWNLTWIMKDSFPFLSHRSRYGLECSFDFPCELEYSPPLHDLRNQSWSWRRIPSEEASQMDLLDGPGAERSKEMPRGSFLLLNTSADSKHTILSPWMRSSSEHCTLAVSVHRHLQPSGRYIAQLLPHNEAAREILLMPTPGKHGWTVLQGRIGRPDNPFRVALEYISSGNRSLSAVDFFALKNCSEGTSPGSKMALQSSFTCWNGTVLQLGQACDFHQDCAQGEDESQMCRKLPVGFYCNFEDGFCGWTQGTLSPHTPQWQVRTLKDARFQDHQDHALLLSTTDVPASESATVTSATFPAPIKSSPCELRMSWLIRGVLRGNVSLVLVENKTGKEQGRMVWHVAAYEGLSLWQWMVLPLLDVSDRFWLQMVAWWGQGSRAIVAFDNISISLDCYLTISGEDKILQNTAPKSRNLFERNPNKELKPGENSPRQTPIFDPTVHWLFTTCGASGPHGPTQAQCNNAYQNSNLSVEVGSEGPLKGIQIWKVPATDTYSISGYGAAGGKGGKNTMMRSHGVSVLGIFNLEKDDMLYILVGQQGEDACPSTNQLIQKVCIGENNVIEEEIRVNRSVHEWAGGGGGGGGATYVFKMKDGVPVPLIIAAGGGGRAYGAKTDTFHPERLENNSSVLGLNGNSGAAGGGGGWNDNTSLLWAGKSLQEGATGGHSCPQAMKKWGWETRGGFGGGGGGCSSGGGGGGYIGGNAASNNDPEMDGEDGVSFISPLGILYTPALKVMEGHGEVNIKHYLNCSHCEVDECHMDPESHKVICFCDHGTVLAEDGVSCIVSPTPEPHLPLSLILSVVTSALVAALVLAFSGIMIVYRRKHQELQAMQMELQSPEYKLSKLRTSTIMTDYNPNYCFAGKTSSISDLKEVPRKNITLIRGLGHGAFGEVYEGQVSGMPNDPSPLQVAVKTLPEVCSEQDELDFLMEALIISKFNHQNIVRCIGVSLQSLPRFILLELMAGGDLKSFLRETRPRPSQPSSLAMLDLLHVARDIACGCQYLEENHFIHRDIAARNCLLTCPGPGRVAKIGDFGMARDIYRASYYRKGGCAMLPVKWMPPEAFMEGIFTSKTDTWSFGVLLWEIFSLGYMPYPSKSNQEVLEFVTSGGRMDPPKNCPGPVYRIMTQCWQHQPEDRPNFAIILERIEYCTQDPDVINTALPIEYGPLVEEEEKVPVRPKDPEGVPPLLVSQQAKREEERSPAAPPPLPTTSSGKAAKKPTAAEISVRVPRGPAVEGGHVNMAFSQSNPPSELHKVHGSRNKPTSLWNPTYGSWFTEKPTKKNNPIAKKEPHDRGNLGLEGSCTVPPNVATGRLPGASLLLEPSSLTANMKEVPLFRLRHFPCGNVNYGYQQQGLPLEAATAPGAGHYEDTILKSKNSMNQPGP
From the text: as §1

AURKA (Aurora A) = AURKA (Aurora A) (Homo sapiens, UniProt O14965); assay: SelectScreen Kinase Profiling AURKA; assay type: biochemical
AURKA (Aurora A), sequence (O14965 whole entry): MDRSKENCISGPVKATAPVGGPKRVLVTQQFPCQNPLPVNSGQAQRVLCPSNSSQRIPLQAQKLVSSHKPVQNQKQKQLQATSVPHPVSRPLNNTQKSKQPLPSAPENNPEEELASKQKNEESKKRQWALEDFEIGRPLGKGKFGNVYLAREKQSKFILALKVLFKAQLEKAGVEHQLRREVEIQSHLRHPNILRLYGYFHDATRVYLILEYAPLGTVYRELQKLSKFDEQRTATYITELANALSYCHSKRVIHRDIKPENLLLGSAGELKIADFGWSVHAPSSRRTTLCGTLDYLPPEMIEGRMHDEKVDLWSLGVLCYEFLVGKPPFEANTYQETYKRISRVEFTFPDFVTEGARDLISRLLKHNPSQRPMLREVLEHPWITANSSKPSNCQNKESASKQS
From the text: as §1

AURKB (Aurora B) = AURKB (Aurora B) (Homo sapiens, UniProt Q96GD4); assay: SelectScreen Kinase Profiling AURKB; assay type: biochemical
From the text: as §1

CDK1/cyclin B = CDK1/cyclin B (Homo sapiens, UniProt P06493); assay: SelectScreen Kinase Profiling CDK1/cyclin B; assay type: biochemical
From the text: as §1

CSF1R (FMS) = CSF1R (FMS) (Homo sapiens, UniProt P07333); assay: SelectScreen Kinase Profiling CSF1R; assay type: biochemical
From the text: as §1

EGFR (ErbB1) = EGFR (ErbB1) (Homo sapiens, UniProt P00533); assay: SelectScreen Kinase Profiling EGFR; assay type: biochemical
EGFR (ErbB1), sequence (P00533 25-1210): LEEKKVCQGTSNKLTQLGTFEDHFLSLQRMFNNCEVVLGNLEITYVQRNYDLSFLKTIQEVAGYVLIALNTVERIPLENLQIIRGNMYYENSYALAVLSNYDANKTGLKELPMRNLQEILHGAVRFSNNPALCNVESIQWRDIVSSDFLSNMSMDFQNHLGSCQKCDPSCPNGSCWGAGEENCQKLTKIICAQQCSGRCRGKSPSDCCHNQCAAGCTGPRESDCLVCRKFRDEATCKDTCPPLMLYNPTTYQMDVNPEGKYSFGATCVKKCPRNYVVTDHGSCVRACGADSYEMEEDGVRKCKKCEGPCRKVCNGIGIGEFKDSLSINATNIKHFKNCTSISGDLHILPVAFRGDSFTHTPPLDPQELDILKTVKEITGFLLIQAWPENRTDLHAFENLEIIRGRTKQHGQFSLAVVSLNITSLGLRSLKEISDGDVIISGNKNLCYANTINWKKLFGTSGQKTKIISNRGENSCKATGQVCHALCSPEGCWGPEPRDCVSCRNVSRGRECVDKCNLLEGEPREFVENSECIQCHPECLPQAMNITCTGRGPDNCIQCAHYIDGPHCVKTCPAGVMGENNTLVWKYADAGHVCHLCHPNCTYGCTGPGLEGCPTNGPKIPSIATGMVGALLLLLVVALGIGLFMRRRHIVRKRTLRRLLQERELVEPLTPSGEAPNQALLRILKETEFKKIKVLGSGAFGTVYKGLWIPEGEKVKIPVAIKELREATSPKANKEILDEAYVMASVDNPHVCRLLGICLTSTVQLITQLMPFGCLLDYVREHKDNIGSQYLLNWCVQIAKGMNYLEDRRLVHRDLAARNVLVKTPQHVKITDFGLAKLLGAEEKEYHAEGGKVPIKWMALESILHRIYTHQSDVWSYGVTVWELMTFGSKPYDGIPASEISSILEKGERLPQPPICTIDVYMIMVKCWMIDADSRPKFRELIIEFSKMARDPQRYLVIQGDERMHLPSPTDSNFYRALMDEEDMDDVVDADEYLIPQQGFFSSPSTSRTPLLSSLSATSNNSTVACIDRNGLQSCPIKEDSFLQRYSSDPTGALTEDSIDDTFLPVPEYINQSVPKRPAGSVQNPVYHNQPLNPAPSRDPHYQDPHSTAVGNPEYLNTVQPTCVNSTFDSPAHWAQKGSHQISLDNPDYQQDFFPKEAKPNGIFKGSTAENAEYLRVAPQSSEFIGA
From the text: as §1

FLT3 D835Y = FLT3 D835Y (Homo sapiens, UniProt P36888, D835Y); assay: SelectScreen Kinase Profiling FLT3 D835Y; assay type: biochemical
From the text: as §1

GRK4 = GRK4 (Homo sapiens, UniProt P32298); assay: SelectScreen Kinase Profiling GRK4; assay type: biochemical
From the text: as §1

GSK3B (GSK3 beta) = GSK3B (GSK3 beta) (Homo sapiens, UniProt P49841); assay: SelectScreen Kinase Profiling GSK3B; assay type: biochemical
From the text: as §1

IGF1R = IGF1R (Homo sapiens, UniProt P08069); assay: SelectScreen Kinase Profiling IGF1R; assay type: biochemical
From the text: as §1

IKBKB (IKK beta) = IKBKB (IKK beta) (Homo sapiens, UniProt O14920); assay: SelectScreen Kinase Profiling IKBKB; assay type: biochemical
From the text: as §1

JAK2 JH1 JH2 V617F = target: T1, JAK2 JH1 JH2 V617F (Homo sapiens, UniProt O60674, V617F); assay: SelectScreen Kinase Profiling JAK2 JH1 JH2 V617F; assay type: biochemical
T1 construct: JAK2 JH1 JH2 V617F
From the text: as §1

KIT T670I = KIT T670I (Homo sapiens, UniProt P10721, T670I); assay: SelectScreen Kinase Profiling KIT T670I; assay type: biochemical
From the text: as §1

MAPK1 (ERK2) = MAPK1 (ERK2) (Homo sapiens, UniProt P28482); assay: SelectScreen Kinase Profiling MAPK1; assay type: biochemical
From the text: as §1

MERTK (cMER) = MERTK (cMER) (Homo sapiens, UniProt Q12866); assay: SelectScreen Kinase Profiling MERTK; assay type: biochemical
From the text: as §1

NTRK3 (TRKC) = NTRK3 (TRKC) (Homo sapiens, UniProt Q16288); assay: SelectScreen Kinase Profiling NTRK3; assay type: biochemical
From the text: as §1

PLK1 = PLK1 (Homo sapiens, UniProt P53350); assay: SelectScreen Kinase Profiling PLK1; assay type: biochemical
From the text: as §1

PRKCD (PKC delta) = PRKCD (PKC delta) (Homo sapiens, UniProt Q05655); assay: SelectScreen Kinase Profiling PRKCD; assay type: biochemical
From the text: as §1

PTK2B (FAK2) = PTK2B (FAK2) (Homo sapiens, UniProt Q14289); assay: SelectScreen Kinase Profiling PTK2B; assay type: biochemical
PTK2B (FAK2), sequence (Q14289 whole entry): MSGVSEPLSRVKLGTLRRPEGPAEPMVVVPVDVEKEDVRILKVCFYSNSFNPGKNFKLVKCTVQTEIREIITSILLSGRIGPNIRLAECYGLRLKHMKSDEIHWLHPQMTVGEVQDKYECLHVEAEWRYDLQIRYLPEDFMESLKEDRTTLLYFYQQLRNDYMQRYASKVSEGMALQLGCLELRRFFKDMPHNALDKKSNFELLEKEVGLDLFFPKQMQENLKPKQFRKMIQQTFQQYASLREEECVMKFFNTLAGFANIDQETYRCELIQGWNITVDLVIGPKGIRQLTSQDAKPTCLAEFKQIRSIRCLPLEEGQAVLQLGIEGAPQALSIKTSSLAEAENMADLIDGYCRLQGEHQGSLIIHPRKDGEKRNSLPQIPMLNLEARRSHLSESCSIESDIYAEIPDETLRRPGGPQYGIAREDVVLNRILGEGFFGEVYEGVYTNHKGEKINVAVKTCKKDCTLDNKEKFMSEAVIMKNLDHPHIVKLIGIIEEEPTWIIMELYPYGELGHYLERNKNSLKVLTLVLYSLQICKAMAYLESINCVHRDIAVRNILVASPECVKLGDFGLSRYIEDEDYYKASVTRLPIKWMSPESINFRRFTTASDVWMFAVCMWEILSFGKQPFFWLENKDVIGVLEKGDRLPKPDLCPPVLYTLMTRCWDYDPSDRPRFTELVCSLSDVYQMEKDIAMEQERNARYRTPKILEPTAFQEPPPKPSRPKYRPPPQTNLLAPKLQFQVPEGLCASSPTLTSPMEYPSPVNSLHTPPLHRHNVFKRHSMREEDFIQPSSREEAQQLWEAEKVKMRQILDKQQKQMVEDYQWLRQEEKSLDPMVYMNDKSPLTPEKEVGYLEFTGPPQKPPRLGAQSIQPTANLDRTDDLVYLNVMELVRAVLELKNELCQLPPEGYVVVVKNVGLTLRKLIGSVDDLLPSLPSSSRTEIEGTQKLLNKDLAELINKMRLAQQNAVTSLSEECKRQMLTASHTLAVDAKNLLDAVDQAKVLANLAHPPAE
From the text: as §1

RET = RET (Homo sapiens, UniProt P07949); assay: SelectScreen Kinase Profiling RET; assay type: biochemical
From the text: as §1

TEK (Tie2) = TEK (Tie2) (Homo sapiens, UniProt Q02763); assay: SelectScreen Kinase Profiling TEK; assay type: biochemical
From the text: as §1

TYRO3 (RSE) = TYRO3 (RSE) (Homo sapiens, UniProt Q06418); assay: SelectScreen Kinase Profiling TYRO3; assay type: biochemical
TYRO3 (RSE), sequence (Q06418 41-890): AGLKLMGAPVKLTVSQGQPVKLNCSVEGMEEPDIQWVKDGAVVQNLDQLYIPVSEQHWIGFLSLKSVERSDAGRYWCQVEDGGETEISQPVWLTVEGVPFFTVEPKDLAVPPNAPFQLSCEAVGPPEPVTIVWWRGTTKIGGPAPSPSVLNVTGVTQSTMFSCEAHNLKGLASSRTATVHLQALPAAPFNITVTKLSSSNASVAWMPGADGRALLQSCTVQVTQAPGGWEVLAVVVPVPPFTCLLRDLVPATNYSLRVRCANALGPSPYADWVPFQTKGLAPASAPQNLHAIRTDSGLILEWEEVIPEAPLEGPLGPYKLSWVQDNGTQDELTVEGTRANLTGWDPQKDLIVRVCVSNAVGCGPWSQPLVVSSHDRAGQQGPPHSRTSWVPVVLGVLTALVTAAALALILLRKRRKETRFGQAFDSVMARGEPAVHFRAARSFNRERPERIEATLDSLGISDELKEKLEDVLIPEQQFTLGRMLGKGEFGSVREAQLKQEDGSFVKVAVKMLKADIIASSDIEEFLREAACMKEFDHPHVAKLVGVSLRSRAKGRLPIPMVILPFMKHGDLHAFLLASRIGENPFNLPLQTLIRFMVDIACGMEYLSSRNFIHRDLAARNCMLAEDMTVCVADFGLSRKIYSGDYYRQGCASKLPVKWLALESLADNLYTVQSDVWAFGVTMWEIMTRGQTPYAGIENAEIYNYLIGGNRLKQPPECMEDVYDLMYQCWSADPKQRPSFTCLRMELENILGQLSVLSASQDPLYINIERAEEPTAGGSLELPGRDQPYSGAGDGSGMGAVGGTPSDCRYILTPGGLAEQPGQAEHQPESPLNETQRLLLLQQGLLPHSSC
From the text: as §1

GTL16 tumors = assay: GTL16 tumor xenograft model, tumor growth; assay type: in vivo; details: last day of treatment, nude mice
Description: Female athymic nude mice (nu/nu from Harlan) were 6-8 weeks old with a body weight range of 18-22 g at the beginning of the study. The animals had free access to food and water throughout the study. The mice were housed on irradiated Alpha-Dri® Bed-O-Cobs® Laboratory Animal Bedding in static micro isolator caging on a 12-hour light cycle at 70-74° F. and 40-60% humidity. All procedures involving animals were conducted in compliance with the NIH Guide for the Care and Use of Laboratory Animals and all protocols were approved by an Internal Animal Care and Use Committee (IACUC).
Xenografts were initiated from GTL-16 tumor cells cultured and maintained by an internal Cell Biology Department. Each test mouse received a subcutaneous injection of 4×10^6 cells suspended in 100 μL of serum free RPMI media. Tumors were randomized into treatment groups on Day 5 when the average tumor size reached approximately 150 mm^3. Each dose groups contained n=5 mice. Tumor volume was calculated using the formula:
[formula] where w=width and l=length in mm of the tumor. Tumor weight may be estimated with the assumption that 1 mg is equivalent to 1 mm^3 of tumor volume. Tumor Growth Inhibition (TGI) Analysis
TGI was calculated from the difference between the mean tumor volumes of vehicle-treated and drug-treated mice, expressed as a percentage. % TGI=Mean Tumor Volumecontrol−Mean Tumor Volumedrug-treated×100 […] Tumor Volumecontrol
The MTV is defined as the mean tumor volume (MTV) for the number of animals, n, remaining in the study on that day.

Row | inhibition at 1 µM (AKT1 (PKB alpha)) | inhibition at 1 µM (ALK) | inhibition at 1 µM (AURKA (Aurora A)) | inhibition at 1 µM (AURKB (Aurora B)) | inhibition at 1 µM (CDK1/cyclin B) | inhibition at 1 µM (CSF1R (FMS)) | inhibition at 1 µM (EGFR (ErbB1)) | inhibition at 1 µM (FLT3 D835Y) | inhibition at 1 µM (GRK4) | inhibition at 1 µM (GSK3B (GSK3 beta)) | inhibition at 1 µM (IGF1R) | inhibition at 1 µM (IKBKB (IKK beta)) | inhibition at 1 µM (JAK2 JH1 JH2 V617F) | inhibition at 1 µM (KIT T670I) | inhibition at 1 µM (MAPK1 (ERK2)) | inhibition at 1 µM (MERTK (cMER)) | inhibition at 1 µM (NTRK3 (TRKC)) | inhibition at 1 µM (PLK1) | inhibition at 1 µM (PRKCD (PKC delta)) | SMILES | pIC50 (GTL16 cells) | other results
1 | -1% | 23% | 49% | 61% | 17% | 79% | 0% | 35% | -4% | 1% | 6% | 1% | 9% | 4% | 0% | 10% | 85% | 0% | 5% | Cc1ccc2nnc(Sc3ccc4ncc(-c5cnn(C)c5)cc4c3)n2n1 [Compound 41, 3-(1-Methyl-1H-pyrazol-4-yl)-6-(6-methyl-[1,2,4]triazolo[4,3-b]pyridazin-3-ylsulfanyl)-quinoline] | ≥ 7.00 | inhibition at 1 µM (PTK2B (FAK2)): 12%; inhibition at 1 µM (RET): 21%; inhibition at 1 µM (TEK (Tie2)): 4%; inhibition at 1 µM (TYRO3 (RSE)): 22%; decrease of mean tumor volume compared to vehicle-treated group (GTL16 tumors; 1 mg/kg PO Q12H, 13 consecutive days): 42%; decrease of mean tumor volume compared to vehicle-treated group (GTL16 tumors; 3 mg/kg PO Q12H, 13 consecutive days): 67%; decrease of mean tumor volume compared to vehicle-treated group (GTL16 tumors; 10 mg/kg PO Q12H, 13 consecutive days): 80%; decrease of mean tumor volume compared to vehicle-treated group (GTL16 tumors; 30 mg/kg PO Q12H, 13 consecutive days): 87%
2 | 5% | -10% | 18% | 7% | 5% | 19% | -2% | 8% | 2% | 5% | -3% | -5% | -11% | -12% | 9% | 7% | 7% | 0% | 4% | Cn1cc(-c2ccc3nnc(Sc4ccc5ncccc5c4)n3n2)cn1 [Compound 4, 6-[6-(1-Methyl-1H-pyrazol-4-yl)-[1,2,4]triazolo[4,3-b]pyridazin-3-ylsulfanyl]-quinoline] | ≥ 7.00 | inhibition at 1 µM (PTK2B (FAK2)): 6%; inhibition at 1 µM (RET): 5%; inhibition at 1 µM (TEK (Tie2)): 8%; inhibition at 1 µM (TYRO3 (RSE)): 19%; decrease of mean tumor volume compared to vehicle-treated group (GTL16 tumors; 10 mg/kg PO Q12H, 14 consecutive days): 65%; decrease of mean tumor volume compared to vehicle-treated group (GTL16 tumors; 20 mg/kg PO Q12H, 14 consecutive days): 75%; decrease of mean tumor volume compared to vehicle-treated group (GTL16 tumors; 30 mg/kg PO Q12H, 14 consecutive days): 81%; decrease of mean tumor volume compared to vehicle-treated group (GTL16 tumors; 60 mg/kg PO Q24H, 14 consecutive days): 75%; decrease of mean tumor volume compared to vehicle-treated group (GTL16 tumors; 100 mg/kg PO Q12H, 14 consecutive days): 87%
